{"source": "ChEMBL document CHEMBL1955819", "about": "“Ketoolivosyl-tetracenomycin C: a new ketosugar bearing tetracenomycin reveals new insight into the substrate flexibility of glycosyltransferase ElmGT” (2012)", "key": {"Rhizomucor miehei": {"test_system": "Rhizomucor miehei", "test": "Antimicrobial activity against Mucor miehei at 1 mg/mL by disc diffusion assay", "type": "functional, organism-based"}, "Escherichia coli": {"test_system": "Escherichia coli", "test": "Antimicrobial activity against Escherichia coli XL1-blue at 1 mg/mL by disc diffusion assay", "type": "functional, organism-based"}, "Streptomyces prasinus": {"test_system": "Streptomyces prasinus", "test": "Antimicrobial activity against Streptomyces prasinus at 1 mg/mL by disc diffusion assay", "type": "functional", "details": "read-out: DIZ"}}, "note": "The source made the active and inactive calls. No cut-off for these calls is given here.", "data": [{"smiles": "COC(=O)c1c(O[C@H]2C[C@H](O)C(=O)[C@H](C)O2)cc2cc3c(c(O)c2c1C)C(=O)[C@]1(O)C(=O)C=C(OC)[C@@H](O)[C@]1(O)C3=O", "values": [{"measurement": "Activity", "setting": "Rhizomucor miehei", "result": "inactive"}, {"measurement": "Activity", "setting": "Escherichia coli", "result": "inactive"}, {"measurement": "zone of inhibition at 1000 µg/mL", "setting": "Streptomyces prasinus", "result": 12, "unit": "mm"}]}, {"smiles": "COC(=O)c1c(O[C@@H]2O[C@@H](C)[C@H](OC)[C@@H](OC)[C@H]2OC)cc2cc3c(c(O)c2c1C)C(=O)[C@]1(OC)C(=O)C=C(OC)[C@@H](O)[C@]1(O)C3=O", "note": "[ELLORAMYCIN]", "values": [{"measurement": "zone of inhibition at 1000 µg/mL", "setting": "Streptomyces prasinus", "result": 25, "unit": "mm"}]}]}
